The subject of test [1] is mice (antibodies against the immunizing antigen). Briefly: immunization of mice with Le^y conjugates 17c and 32c, ELISA antibody titer. It counts as in vivo. The settings on record: one set of 5 mice; graphs J-L. Here is the method:
The stage was set for immunizations with conjugates 17c and 32c. The immunizations with the BSA conjugate 17c were carried out on two sets of 5 mice and the immunizations with the ceramide conjugate 32c were carried out on one set of 5 mice. An enzyme-linked immunosorbant assay (ELISA) was used to measure antibody titer (FIG. 20(b)). Three different ELISA experiments were performed to measure antibody titer. The first is the measure of total antibody response (aIg), that is the summation of IgM and IgG antibodies, as shown in graphs A, D, G. and J of FIGS. 21(a) and (b). The other two assays measure IgM and IgG antibodies separately as indicated in the graphs. The ELISA assay (see FIG. 20(b)) involves the immobilization of a test antigen in a microtiter well. The serum to be tested for antibodies is placed in the well. Any antibodies in the serum recognizing the test antigen will remain in the well after thorough washing. Next, modified anti-mouse Ig, IgM, or IgG antibodies are placed in the well. […] The presence of the alkaline phosphatase-linked secondary antibody causes cleavage of the phosphate, yielding the yellow p-nitrophenolate anion, which can be quantified using spectrophotometric techniques.
Graphs A, B, and C in FIG. 21(a) show the measured titers of total antibody Ig (A), IgM (B), and IgG (C) type antibodies in five mice immunized with conjugate 17c. […]

The test system of the next test is mAb MBr1. Briefly: binding to mAb MBr1, mapping of structural requirements. More on the design: species or system murine. From the text: (§1) The breast tumor glycolipid associated antigen 2 (See FIG. 24) isolated by Hakomori and co-workers from MCF-7 cells, and termed globe H, constituted a promising possibility for exploration (Kannagi, R., et al., J. Biol. Chem. 1983, 258, 8934; Bremer, G., et al., J. Biol. Chem. 1984 259, 14773). Early studies in this area were facilitated by the immunocharacterization of the antigen by the murine monoclonal antibody Mbr1 (Menard, S., et al., Cancer Res. 1983, 43, 1295). Previously, we had described the total synthesis of the hexacyclic globo H glycal 1 (See FIG. 24) by the method of glycal assembly (See FIG. 24) (Bilodeau, M.T., et al., J. Am. Chem. Soc. 1995 117, 7840; Park, et al., J. Am. Chem. Soc. 1996, 118, 11488). This system was carried forward to reach antigen 2 (See FIG. 24), whose structure assignment was verified by unambiguous spectroscopic corroboration through this synthesis.
We then built upon the logic of our synthesis to prepare congeners of the compound and to use them to map the structural requirements for binding to the mAb MBr1.

In test [2] the test system is MAb MBr1 with breast cancer cell lines such as MCF-7. Briefly: flow cytometry inhibition assay of mAb MBr1 reactivity with MCF-7. Format: cell-based. Particulars: for inhibition of reactivity of MAb MBr1 with breast cancer cell lines such as MCF-7: 8 μg/ml of preparation. As to the method:
By Thin Layer Chromatography (TLC) the 2 preparations migrate as similar single bands. […] The high level of reactivity of the β structure with mAb MBr1 was confirmed using flow cytometry inhibition assays. Reactivity of MAb MBr1 with breast cancer cell lines such as MCF-7 was 98% inhibited by 8 μg/ml of the β linkage preparation but was only 6% inhibited by 8 μg of the α-linkage preparation.
as §1
(In flow cytometry, cells or beads pass a laser one at a time.)

The subject of test [3] is antisera binding to globo H antigen 2. Briefly: inhibition of binding of anti-globo H antisera to globo H antigen 2 (ELISA). Also noted: species or system mice. From the text:
As an indication of specificity, we conducted assays with compounds 2-8 of FIGS. 24 and 25 to determine their ability to inhibit the binding of antisera to the fully synthetic globo H antigen 2 (FIG. 28). […] Partial inhibition resulted from truncated globo H compounds, but not with unrelated compounds such as ganglioside GD3. These findings are consistent with a polyclonal serological response in which different antibodies react with different portions of compound 2.
In general terms: In an ELISA, binding on a coated surface is turned into a signal by an enzyme label.

A further test relates to MBr1 monoclonal antibody. Briefly: Immune TLC with monoclonal antibody MBr1. The settings on record: comparable staining with 1/10 the amount of antigen. It counts as binding, murine.

Like-named read-outs stand apart in the source and are kept apart here.

The values that follow come from patent publication US6544952B1, “Synthesis of glycoconjugates of the globo-H epitope and uses thereof” (Sloan-Kettering Institute for Cancer Research, priority 1994, dated 2003).

For the compound `CCCCCCCCCCCCCC=C[C@@H](O)[C@@H](CO[C@@H]1O[C@H](CO)[C@@H](O[C@@H]2O[C@H](CO)[C@H](O)[C@H](O)[C@H]2O[C@@H]2O[C@@H](C)[C@@H](O)[C@@H](O)[C@@H]2O)[C@H](O[C@@H]2O[C@@H](C)[C@@H](O)[C@@H](O)[C@@H]2O)[C@H]1NC(C)=O)NC(=O)CCCCCCCCCCCCCCC` [32c, (3R)-Hydroxy-(2R)-hexadecanamido-4-octadecenyl-[[[(6-deoxy-a-L-galactopyranosyl)-(1→2)]-(b-D-galactopyranosyl)-(1→4)]-(6-deoxy-a-L-galactopyranosyl)-(1→3)]-2-deoxy-2-acetamido-b-D-glucopyranose], in test [1], the IgG response entry was “No mice showed any IgG response” and the IgM response entry was “Most mice showed only a weak IgM response”.
As for “Fuca1→GalB1→3GalNAcB1→3Galα1→4GlB1→4GcB1→1Cer [compound 2]”, the “binding to mAb MBr1” value in the test on mAb MBr1 is “bind to the murine monoclonal antibody (mAb) MBr1”. Also, the “binding to mAb MBr1” value with mAb MBr1 (listed as 1b) was “bind to the monoclonal antibody MBr1”. In addition, in test [2], the “inhibition of MBr1 binding to MCF-7 cells” value is on record as “inhibited its binding to MCF-7 cells” and the “inhibition of reactivity of MAb MBr1 with breast cancer cell lines such as MCF-7” value was determined as 98%. Moreover, the “inhibition of binding of antisera to globo H antigen 2” value in test [3] is “complete inhibition”. Moreover, in the test with MBr1 monoclonal antibody, the “reactivity with MBr1 monoclonal antibody, β-form relative to the other form” value was 10 times.
Consider “Fucα1→2GalB1→3GalNAcα1→3Galα1→4GalB1→1Cer [α-linkage preparation]”, for which, in test [2], the “inhibition of reactivity of MAb MBr1 with breast cancer cell lines such as MCF-7” value is listed as 6%.
